{
  "source": "patent US9796733B2",
  "about": "“Imidazo-pyrazine derivatives useful as soluble guanylate cyclase activators” (Merck Sharp & Dohme Corp., priority 2014, dated 2017)",
  "molecular_target": "T1, sGC α1/β1 heterodimer (Homo sapiens, UniProt Q02108+Q02153)",
  "T1 construct": "expressed in transfected cells; host or cells: CHO-K1 (clone #7, CHO-K1/sGC)",
  "T1 sequence (Q02108 1-690)": "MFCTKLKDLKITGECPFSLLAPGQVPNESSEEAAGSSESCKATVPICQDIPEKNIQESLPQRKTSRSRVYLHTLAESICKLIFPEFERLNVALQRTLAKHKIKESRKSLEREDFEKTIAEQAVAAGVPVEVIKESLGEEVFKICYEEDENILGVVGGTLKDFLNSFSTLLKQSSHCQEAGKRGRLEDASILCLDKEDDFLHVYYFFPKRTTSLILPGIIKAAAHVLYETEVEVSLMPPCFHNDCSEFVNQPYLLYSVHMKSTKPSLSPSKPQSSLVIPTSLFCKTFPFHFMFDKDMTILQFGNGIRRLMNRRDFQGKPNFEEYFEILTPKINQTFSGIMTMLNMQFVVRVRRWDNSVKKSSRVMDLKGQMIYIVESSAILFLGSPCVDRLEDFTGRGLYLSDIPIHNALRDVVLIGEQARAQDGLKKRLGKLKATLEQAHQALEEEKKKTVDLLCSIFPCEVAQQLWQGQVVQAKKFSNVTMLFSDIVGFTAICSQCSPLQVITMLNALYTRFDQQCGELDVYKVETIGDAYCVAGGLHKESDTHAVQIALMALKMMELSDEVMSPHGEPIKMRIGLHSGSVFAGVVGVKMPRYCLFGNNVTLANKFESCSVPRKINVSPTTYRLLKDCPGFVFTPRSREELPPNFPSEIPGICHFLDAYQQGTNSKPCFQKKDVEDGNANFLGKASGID",
  "T1 sequence (Q02153 1-619)": "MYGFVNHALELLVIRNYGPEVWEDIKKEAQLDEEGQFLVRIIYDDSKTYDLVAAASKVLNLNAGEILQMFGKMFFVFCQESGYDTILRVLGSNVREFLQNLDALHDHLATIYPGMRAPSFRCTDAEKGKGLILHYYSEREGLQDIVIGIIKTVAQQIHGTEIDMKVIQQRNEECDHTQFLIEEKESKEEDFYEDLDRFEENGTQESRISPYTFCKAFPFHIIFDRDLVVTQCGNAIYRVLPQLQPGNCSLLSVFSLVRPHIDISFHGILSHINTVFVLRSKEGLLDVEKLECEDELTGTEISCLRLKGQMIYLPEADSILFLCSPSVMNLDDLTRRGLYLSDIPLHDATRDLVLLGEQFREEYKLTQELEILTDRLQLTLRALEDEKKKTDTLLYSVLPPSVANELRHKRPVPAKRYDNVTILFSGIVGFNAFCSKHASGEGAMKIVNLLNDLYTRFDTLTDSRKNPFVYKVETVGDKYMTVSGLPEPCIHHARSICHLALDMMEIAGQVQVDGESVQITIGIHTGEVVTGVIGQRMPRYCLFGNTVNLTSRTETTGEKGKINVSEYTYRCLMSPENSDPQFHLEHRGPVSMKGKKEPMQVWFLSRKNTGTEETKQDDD",
  "assay": "Cell-based sGC functional assay (CASA assay): cGMP generation in CHO-K1/sGC cells, HTRF detection",
  "conditions": "for Emax: CHO-K1, percent activation relative to standard Compound A in CHO-K1/sGC cells, read-out: % Act.; for EC50: inflection point (IP) of cGMP generation in CHO-K1/sGC cells, 4P fit, activity expressed as percentage of Compound A",
  "outline": "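Stable CHO-K1/sGC cells in EBSS buffer with 5 mM MgCl2, 0.05% BSA and 0.5 mM IBMX were incubated with compound (2.5% DMSO final) ±1 μM DETA-NO for 1 hr at 37° C. cGMP was measured by HTRF. Activation is expressed as % of reference HDA Compound A maximum, with IP and max fold induction from a 4P fit.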",
  "data": [
    {"smiles": "Nc1nc(-c2cn3ccnc3c(CCCC(F)(F)F)n2)nc2c1C(c1ncc(Cl)cc1F)(C1CC1)C(=O)N2", "note": "(single isomer, unassigned) [Example 371A, 4-amino-5-(5-chloro-3-fluoropyridin-2-yl)-5-cyclopropyl-2-(8-(4,4,4-trifluorobutyl)imidazo[1,2-a]pyrazin-6-yl)-5H-pyrrolo[2,3-d]pyrimidin-6(7H)-one]", "values": [
      {"measurement": "Emax", "result": 82, "unit": "%"},
      {"measurement": "EC50", "result": 194, "unit": "nM"}
    ]},
    {"smiles": "CCC(CC)Cc1nc(-c2nc(N)c3c(n2)NC(=O)C3(C)c2ccc(F)cc2)cn2ccnc12", "note": "(stereo not shown) [Example 13A, 4-amino-2-(8-(2-ethylbutyl)imidazo[1,2-a]pyrazin-6-yl)-5-(4-fluorophenyl)-5-methyl-5H-pyrrolo[2,3-d]pyrimidin-6(7H)-one]", "values": [
      {"measurement": "Emax", "result": 114, "unit": "%"},
      {"measurement": "EC50", "result": 42, "unit": "nM"}
    ]},
    {"smiles": "CC1(C(=O)NC2CC2)C(=O)Nc2nc(-c3cn4ccnc4c(Cc4ccccc4F)n3)nc(N)c21", "note": "(stereo not shown) [Example 35A, 4-amino-N-cyclopropyl-2-(8-(2-fluorobenzyl)imidazo[1,2-a]pyrazin-6-yl)-5-methyl-6-oxo-6,7-dihydro-5H-pyrrolo[2,3-d]pyrimidine-5-carboxamide]", "values": [
      {"measurement": "Emax", "result": 129, "unit": "%"},
      {"measurement": "EC50", "result": 16, "unit": "nM"}
    ]},
    {"smiles": "CC(C)(C)CCc1nc(-c2nc(N)c3c(n2)NC(=O)C3(C)c2ccc(F)cc2)cn2ccnc12", "note": "(stereo not shown) [Example 121A, 4-amino-2-(8-(3,3-dimethylbutyl)imidazo[1,2-a]pyrazin-6-yl)-5-(4-fluorophenyl)-5-methyl-5H-pyrrolo[2,3-d]pyrimidin-6(7H)-one]", "values": [
      {"measurement": "Emax", "result": 145, "unit": "%"},
      {"measurement": "EC50", "result": 56, "unit": "nM"}
    ]},
    {"smiles": "CCCCc1nc(-c2nc(N)c3c(n2)NC(=O)C3(c2ccc(F)cc2)C2CCC2)cn2ccnc12", "note": "(single isomer, unassigned) [Example 361B, 4-amino-2-(8-butylimidazo[1,2-a]pyrazin-6-yl)5-cyclobutyl-5-(4-fluorophenyl)-5H-pyrrolo[2,3-d]pyrimidin-6(7H)-one]", "values": [
      {"measurement": "Emax", "result": 157, "unit": "%"},
      {"measurement": "EC50", "result": 47, "unit": "nM"}
    ]},
    {"smiles": "NC(=O)C1(C2CC2)C(=O)Nc2nc(-c3cn4ccnc4c(Cc4cccc(F)c4)n3)nc(N)c21", "note": "(stereo not shown) [Example 42B, 4-amino-5-cyclopropyl-2-(8-(3-fluorobenzyl)imidazo[1,2-a]pyrazin-6-yl)-6-oxo-6,7-dihydro-5H-pyrrolo[2,3-d]pyrimidine-5-carboxamide]", "values": [
      {"measurement": "Emax", "result": 103, "unit": "%"},
      {"measurement": "EC50", "result": 32, "unit": "nM"}
    ]},
    {"smiles": "CC(C)Cc1nc(-c2nc(N)c3c(n2)NC(=O)C3(C)c2ccc(F)cn2)cn2ccnc12", "note": "(stereo not shown) [Example 23B, 4-amino-5-(5-fluoropyridin-2-yl)-2-(8-isobutylimidazo[1,2-a]pyrazin-6-yl)-5-methyl-5H-pyrrolo[2,3-d]pyrimidin-6(7H)-one]", "values": [
      {"measurement": "Emax", "result": 96, "unit": "%"},
      {"measurement": "EC50", "result": 257, "unit": "nM"}
    ]},
    {"smiles": "CC1(c2ccc(F)cn2)C(=O)Nc2nc(-c3cn4ccnc4c(CCC(F)(F)C(F)(F)F)n3)nc(NC3CC3)c21", "note": "(stereo not shown) [Example 292B, 4-(cyclopropylamino)-5-(5-fluoropyridin-2-yl)-5-methyl-2-(8-(3,3,4,4,4-pentafluorobutyl)imidazo[1,2-a]pyrazin-6-yl)-5H-pyrrolo[2,3-d]pyrimidin-6(7H)-one]", "values": [
      {"measurement": "Emax", "result": 148, "unit": "%"},
      {"measurement": "EC50", "result": 951, "unit": "nM"}
    ]},
    {"smiles": "CC1(c2ccc(Cl)cc2)C(=O)Nc2nc(-c3cn4ccnc4cn3)nc(NCCCC(F)(F)F)c21", "note": "(stereo not shown) [Example 285A, 5-(4-chlorophenyl)-2-(imidazo[1,2-a]pyrazin-6-yl)-5-methyl-4-((4,4,4-trifluorobutyl)amino)-5H-pyrrolo[2,3-d]pyrimidin-6(7H)-one]", "values": [
      {"measurement": "Emax", "result": 130, "unit": "%"},
      {"measurement": "EC50", "result": 20, "unit": "nM"}
    ]},
    {"smiles": "CC(C)Cc1nc(-c2nc(N)c3c(n2)NC(=O)C3(c2ccc(Cl)cn2)C2CC2)cn2ccnc12", "note": "(stereo not shown) [Example 126B, 4-amino-5-(5-chloropyridin-2-yl)-5-cyclopropyl-2-(8-isobutylimidazo[1,2-a]pyrazin-6-yl)-5H-pyrrolo[2,3-d]pyrimidin-6(7H)-one]", "values": [
      {"measurement": "Emax", "result": 160, "unit": "%"},
      {"measurement": "EC50", "result": 242, "unit": "nM"}
    ]},
    {"smiles": "CC1(c2ccc(F)cc2)C(=O)Nc2nc(-c3cn4c(CCC5CCCCC5)cnc4cn3)nc(N)c21", "note": "(stereo not shown) [Example 261A, 4-Amino-2-(3-(2-cyclohexylethyl)imidazo[1,2-a]pyrazin-6-yl)-5-(4-fluorophenyl)-5-methyl-5H-pyrrolo[2,3-d]pyrimidin-6(7H)-one]", "values": [
      {"measurement": "Emax", "result": 116, "unit": "%"},
      {"measurement": "EC50", "result": 822, "unit": "nM"}
    ]},
    {"smiles": "CC1(c2ccccc2)C(=O)Nc2nc(-c3cn4c(Cl)cnc4c(CCC(F)(F)F)n3)nc(N)c21", "note": "(stereo not shown) [Example 259B, 4-amino-2-(3-chloro-8-(3,3,3-trifluoropropyl)imidazo[1,2-a]pyrazin-6-yl)-5-methyl-5-phenyl-5H-pyrrolo[2,3-d]pyrimidin-6(7H)-one]", "values": [
      {"measurement": "Emax", "result": 99, "unit": "%"},
      {"measurement": "EC50", "result": 112, "unit": "nM"}
    ]},
    {"smiles": "CC1(c2ccc(Cl)cc2)C(=O)Nc2nc(-c3cn4ccnc4cn3)nc(N3CC(F)(C4CC4)C3)c21", "note": "(stereo not shown) [Example 281A, 5-(4-chlorophenyl)-4-(3-cyclopropyl-3-fluoroazetidin-1-yl)-2-(imidazo[1,2-a]pyrazin-6-yl)-5-methyl-5H-pyrrolo[2,3-d]pyrimidin-6(7H)-one]", "values": [
      {"measurement": "Emax", "result": 120, "unit": "%"},
      {"measurement": "EC50", "result": 102, "unit": "nM"}
    ]},
    {"smiles": "CC1(c2ccc(Cl)cc2)C(=O)Nc2nc(-c3cn4ccnc4c(Cc4ccc(F)cc4)n3)nc(N)c21", "note": "(stereo not shown) [Example 99A, 4-amino-5-(4-chlorophenyl)-2-(8-(4-fluorobenzyl)imidazo[1,2-a]pyrazin-6-yl)-5-methyl-5H-pyrrolo[2,3-d]pyrimidin-6(7H)-one]", "values": [
      {"measurement": "Emax", "result": 119, "unit": "%"},
      {"measurement": "EC50", "result": 11, "unit": "nM"}
    ]},
    {"smiles": "CC(C)c1nc(C2(C)C(=O)Nc3nc(-c4cn5ccnc5c(CCC(F)(F)C(F)(F)F)n4)nc(N)c32)no1", "note": "(single isomer, unassigned) [Example 321B, 4-amino-5-(5-isopropyl-1,2,4-oxadiazol-3-yl)-5-methyl-2-(8-(3,3,4,4,4-pentafluorobutyl)imidazo[1,2-a]pyrazin-6-yl)-5H-pyrrolo[2,3-d]pyrimidin-6(7H)-one]", "values": [
      {"measurement": "Emax", "result": 126, "unit": "%"},
      {"measurement": "EC50", "result": 237, "unit": "nM"}
    ]},
    {"smiles": "Nc1nc(-c2cn3ccnc3c(CCC(F)(F)F)n2)nc2c1C(c1ccc(Cl)cc1)(C1CCC1)C(=O)N2", "note": "(single isomer, unassigned) [Example 351B, 4-amino-5-(4-chlorophenyl)-5-cyclobutyl-2-(8-(3,3,3-trifluoropropyl)imidazo[1,2-a]pyrazin-6-yl)-5H-pyrrolo[2,3-d]pyrimidin-6(7H)-one]", "values": [
      {"measurement": "Emax", "result": 182, "unit": "%"},
      {"measurement": "EC50", "result": 985, "unit": "nM"}
    ]},
    {"smiles": "Nc1nc(-c2cn3ccnc3c(CCC(F)(F)C(F)(F)F)n2)nc2c1C(c1nnc(C3CC3)s1)(C1CC1)C(=O)N2", "note": "(stereo not shown) [Example 54A, 4-amino-5-cyclopropyl-5-(5-cyclopropyl-1,3,4-thiadiazol-2-yl)-2-(8-(3,3,4,4,4-pentafluorobutyl)imidazo[1,2-a]pyrazin-6-yl)-5H-pyrrolo[2,3-d]pyrimidin-6(7H)-one]", "values": [
      {"measurement": "Emax", "result": 91, "unit": "%"},
      {"measurement": "EC50", "result": 144, "unit": "nM"}
    ]},
    {"smiles": "C#CC1(C)C(=O)Nc2nc(-c3cn4ccnc4c(CCC(F)(F)C(F)(F)F)n3)nc(N)c21", "note": "(stereo not shown) [Example 66A, 4-amino-5-ethynyl-5-methyl-2-(8-(3,3,4,4,4-pentafluorobutyl)imidazo[1,2-a]pyrazin-6-yl)-5H-pyrrolo[2,3-d]pyrimidin-6(7H)-one]", "values": [
      {"measurement": "Emax", "result": 127, "unit": "%"},
      {"measurement": "EC50", "result": 252, "unit": "nM"}
    ]},
    {"smiles": "CC1(c2ccc(F)cc2)C(=O)Nc2nc(-c3cn4ccnc4c(CCc4ccccc4F)n3)nc(N)c21", "note": "(stereo not shown) [Example 3A, 4-amino-2-(8-(2-fluorophenethyl)imidazo[1,2-a]pyrazin-6-yl)-5-(4-fluorophenyl)-5-methyl-5H-pyrrolo[2,3-d]pyrimidin-6(7H)-one]", "values": [
      {"measurement": "Emax", "result": 139, "unit": "%"},
      {"measurement": "EC50", "result": 19, "unit": "nM"}
    ]},
    {"smiles": "CC(C)n1cc(C2(C)C(=O)Nc3nc(-c4cn5ccnc5c(CCC(F)(F)C(F)(F)F)n4)nc(N)c32)nn1", "note": "(stereo not shown) [Example 67A, 4-amino-5-(1-isopropyl-1H-1,2,3-triazol-4-yl)-5-methyl-2-(8-(3,3,4,4,4-pentafluorobutyl)imidazo[1,2-a]pyrazin-6-yl)-5H-pyrrolo[2,3-d]pyrimidin-6(7H)-one]", "values": [
      {"measurement": "Emax", "result": 120, "unit": "%"},
      {"measurement": "EC50", "result": 746, "unit": "nM"}
    ]}
  ]
}
